The values below come from US12624044B2, “SMARCA degraders and uses thereof” (Kymera Therapeutics, Inc., priority 2019, dated 2026).

Molecules are shown by their SMILES.

Common to all, as to format: cell-based
Experiment [1] concerns the target T1, SMARCA4 (Homo sapiens, UniProt P51532).
T1 construct: SMARCA2 and SMARCA4 protein degradation in MV4-11 cells; endogenous in cells; host or cells: MV4-11
The experiment in a line: SMARCA4 Western blot MV4-11 degradation. To be noted: 24 h; for Dmax: MV4-11, MV4-11 cells, read-out: SMARCA4 WB MV411 degradation 24 h: Average Dmax %; for DC50: MV4-11 cells, read-out: SMARCA4 WB MV411 degradation 24 h: Average external-Abs DC50. An outline of the steps:
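MV4-11 cells treated with compound for 24 h, lysed in RIPA with protease/phosphatase inhibitors, and SMARCA2 and SMARCA4 (BRG1) levels assessed by Western blot with β-actin loading control and LI-COR fluorescent read-out. Maximal degradation (Dmax %) after 24 h binned into letter codes.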

The target in experiment [2] is T2, SMARCA2 (Homo sapiens, UniProt P51531). Briefly: MSD SMARCA2 degradation in NCI-H1299 cell line (24 h). The arrangement: HC: NCI-H1299 cells treated with DMSO; host or cells: NCI-H1299. As to conditions: for Dmax: NCI-H1299, NCI-H1299 cells; for DC50: NCI-H1299 cells, read-out: SMARCA2 MSD H1299 degradation 24 h: External Abs-DC50. The procedure, abridged: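 SMARCA2 measured by MSD electrochemiluminescence (primary 0.3 ug/ml, secondary 1 ug/ml) on lysates from NCI-H1299 cells exposed to compounds for 24 h across nine 3-fold dilutions. Signal scaled from A2780 cells (no SMARCA2) to DMSO-treated H1299 controls, and maximal degradation after 24 h reported in letter categories.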

The target of experiment [3] is T2, SMARCA2. Briefly: MSD SMARCA2 degradation in A549 cell line. As to conditions: 24 h; for Dmax: A549, A549 cells; for DC50: A549 cells, read-out: SMARCA2 MSD A549 degradation 24 h: Average external-Abs DC50. An outline of the steps: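 SMARCA2 remaining was measured by MSD electrochemiluminescence on RIPA lysates (anti-SMARCA2 plus SULFO-TAG anti-rabbit). Prior exposure: 24 h of A549 cells to a 10-point, 3-fold dilution series topping at 1000 nM final; Dmax % given as graded codes.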

The target in experiment [4] is T2, SMARCA2. Briefly: SMARCA2 Western blot MV4-11 degradation. As to conditions: MV4-11 cells, 24 h, read-out: SMARCA2 WB MV411 degradation 24 h: Average external-Abs DC50. On the procedure:
Cells were seeded into 6-well plates (MV4-11: 4×10^6 cells/well/1 ml) and 1 ml of 2× compound solution was added into the well to make the final concentration and the plates were mixed well and incubated for 24 hours (No cytotoxicity was observed). The cell were collected with media and spun at 3000 rpm for 5 minutes. The supernatant was aspirated and the well and the cells were washed with cold PBS once and combined for centrifugation again; the supernatant aspirated again. 200 ul pre-chilled RIPAlysis buffer (Boston BioProducts BP-115D) with protease/phosphatase inhibitor (Roche 05892791001/Roche 04906837001) was directly added into the tube to lyze the cells for 20 minutes on ice. The cell lysate were collected into EP tubes and spun at 13000 rpm for 20 minutes and 72 ul supernatant was transferred to a fresh EP tube containing 18 ul of 5× loading buffer (Beyotime Bio P0015) to make the loading samples. The samples were heated to 100° C. for 10 minutes and cooled to RT and microcentrifuged. 20 ul of samples were loaded onto SDS-PAGE gel (Novex, WG1402BOX) and the gel was run at 80 V for 20 minutes and 120 V for 1.5 hours. The samples were electrotransfer to a NC membrane using wet-transfer method with 250 mA for 2.5 hours. The membrane was blocked with LICOR blocking buffer (LI-COR, 927-50000) for 1 hour. The membrane was washed three times with TBST (CST #9997S), 5 minutes each. Incubation was performed with primary antibody prepared in blocking buffer with 0.1% Tween-20 (Solarbio, P8220) at 4° C. overnight (Anti-SMARCA2/BRM antibody (ab15597) 1:500; Anti-BRG1 antibody [EPR3912] (ab108318) 1:1000; Rabbit anti-Baf180 antibody [EPR15860] (Abcam, ab196022) 1:1000; mouse anti-beta-Actin (8H10D10) (CST #3700) 1:10000). The membrane was washed three times with TBST, 5 minutes each. Incubation with secondary antibody was performed for 1 hour at RT (anti-rabbit IgG (Licor, 926-32211) 1:5000; anti-mouse IgG (LI-COR, 926-68070) 1:5000). The membrane was washed three times with TBST, 5 minutes each and lastly the LiCOR was read.
The letter codes for the percentage of SMARCA degradation after 24 hours (Dmax %) include: A (>90% degradation), B (>70-90% degradation), C (50-70% degradation), and D (<50% degradation).

T2 sequence (P51531 whole entry): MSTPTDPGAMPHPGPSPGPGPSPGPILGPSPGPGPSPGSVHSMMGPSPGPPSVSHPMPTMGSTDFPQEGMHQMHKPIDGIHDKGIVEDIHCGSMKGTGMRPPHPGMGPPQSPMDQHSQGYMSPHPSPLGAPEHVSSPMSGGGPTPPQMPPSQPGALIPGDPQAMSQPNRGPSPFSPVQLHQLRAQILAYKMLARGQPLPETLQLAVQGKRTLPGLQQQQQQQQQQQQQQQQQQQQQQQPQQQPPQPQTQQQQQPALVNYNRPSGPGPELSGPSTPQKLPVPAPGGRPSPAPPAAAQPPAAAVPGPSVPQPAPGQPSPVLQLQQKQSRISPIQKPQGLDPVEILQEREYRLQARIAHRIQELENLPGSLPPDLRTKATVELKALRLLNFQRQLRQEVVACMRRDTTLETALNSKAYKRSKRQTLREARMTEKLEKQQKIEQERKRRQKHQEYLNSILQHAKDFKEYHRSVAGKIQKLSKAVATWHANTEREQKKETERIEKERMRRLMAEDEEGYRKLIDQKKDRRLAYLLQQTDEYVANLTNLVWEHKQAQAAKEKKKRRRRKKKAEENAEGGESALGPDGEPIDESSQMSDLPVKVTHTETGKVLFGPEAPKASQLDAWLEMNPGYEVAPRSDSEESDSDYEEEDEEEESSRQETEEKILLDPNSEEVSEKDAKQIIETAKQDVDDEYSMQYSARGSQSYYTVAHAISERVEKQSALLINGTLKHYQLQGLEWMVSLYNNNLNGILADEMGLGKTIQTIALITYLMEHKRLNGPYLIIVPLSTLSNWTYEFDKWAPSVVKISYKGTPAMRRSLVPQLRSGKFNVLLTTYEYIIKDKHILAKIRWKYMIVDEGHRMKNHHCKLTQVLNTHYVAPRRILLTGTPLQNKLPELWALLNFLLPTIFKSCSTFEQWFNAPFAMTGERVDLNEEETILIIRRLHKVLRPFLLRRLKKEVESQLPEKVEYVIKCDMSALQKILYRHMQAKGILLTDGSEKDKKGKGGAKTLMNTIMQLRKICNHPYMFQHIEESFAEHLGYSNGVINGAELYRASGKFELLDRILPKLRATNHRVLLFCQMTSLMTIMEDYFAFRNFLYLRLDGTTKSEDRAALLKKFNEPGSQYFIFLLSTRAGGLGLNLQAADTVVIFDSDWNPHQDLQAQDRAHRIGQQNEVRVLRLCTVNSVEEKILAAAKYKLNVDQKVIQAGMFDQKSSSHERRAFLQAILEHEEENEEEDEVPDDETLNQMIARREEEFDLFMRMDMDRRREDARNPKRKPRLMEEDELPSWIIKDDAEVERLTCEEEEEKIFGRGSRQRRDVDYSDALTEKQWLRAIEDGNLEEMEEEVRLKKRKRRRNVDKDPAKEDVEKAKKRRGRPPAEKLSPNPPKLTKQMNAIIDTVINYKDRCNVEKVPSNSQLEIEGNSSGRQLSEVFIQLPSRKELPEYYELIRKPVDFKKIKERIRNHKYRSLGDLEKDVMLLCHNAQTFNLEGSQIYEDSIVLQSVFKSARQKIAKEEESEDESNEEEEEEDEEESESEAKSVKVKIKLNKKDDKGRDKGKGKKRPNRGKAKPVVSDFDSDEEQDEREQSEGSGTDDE
T1 sequence (P51532 whole entry): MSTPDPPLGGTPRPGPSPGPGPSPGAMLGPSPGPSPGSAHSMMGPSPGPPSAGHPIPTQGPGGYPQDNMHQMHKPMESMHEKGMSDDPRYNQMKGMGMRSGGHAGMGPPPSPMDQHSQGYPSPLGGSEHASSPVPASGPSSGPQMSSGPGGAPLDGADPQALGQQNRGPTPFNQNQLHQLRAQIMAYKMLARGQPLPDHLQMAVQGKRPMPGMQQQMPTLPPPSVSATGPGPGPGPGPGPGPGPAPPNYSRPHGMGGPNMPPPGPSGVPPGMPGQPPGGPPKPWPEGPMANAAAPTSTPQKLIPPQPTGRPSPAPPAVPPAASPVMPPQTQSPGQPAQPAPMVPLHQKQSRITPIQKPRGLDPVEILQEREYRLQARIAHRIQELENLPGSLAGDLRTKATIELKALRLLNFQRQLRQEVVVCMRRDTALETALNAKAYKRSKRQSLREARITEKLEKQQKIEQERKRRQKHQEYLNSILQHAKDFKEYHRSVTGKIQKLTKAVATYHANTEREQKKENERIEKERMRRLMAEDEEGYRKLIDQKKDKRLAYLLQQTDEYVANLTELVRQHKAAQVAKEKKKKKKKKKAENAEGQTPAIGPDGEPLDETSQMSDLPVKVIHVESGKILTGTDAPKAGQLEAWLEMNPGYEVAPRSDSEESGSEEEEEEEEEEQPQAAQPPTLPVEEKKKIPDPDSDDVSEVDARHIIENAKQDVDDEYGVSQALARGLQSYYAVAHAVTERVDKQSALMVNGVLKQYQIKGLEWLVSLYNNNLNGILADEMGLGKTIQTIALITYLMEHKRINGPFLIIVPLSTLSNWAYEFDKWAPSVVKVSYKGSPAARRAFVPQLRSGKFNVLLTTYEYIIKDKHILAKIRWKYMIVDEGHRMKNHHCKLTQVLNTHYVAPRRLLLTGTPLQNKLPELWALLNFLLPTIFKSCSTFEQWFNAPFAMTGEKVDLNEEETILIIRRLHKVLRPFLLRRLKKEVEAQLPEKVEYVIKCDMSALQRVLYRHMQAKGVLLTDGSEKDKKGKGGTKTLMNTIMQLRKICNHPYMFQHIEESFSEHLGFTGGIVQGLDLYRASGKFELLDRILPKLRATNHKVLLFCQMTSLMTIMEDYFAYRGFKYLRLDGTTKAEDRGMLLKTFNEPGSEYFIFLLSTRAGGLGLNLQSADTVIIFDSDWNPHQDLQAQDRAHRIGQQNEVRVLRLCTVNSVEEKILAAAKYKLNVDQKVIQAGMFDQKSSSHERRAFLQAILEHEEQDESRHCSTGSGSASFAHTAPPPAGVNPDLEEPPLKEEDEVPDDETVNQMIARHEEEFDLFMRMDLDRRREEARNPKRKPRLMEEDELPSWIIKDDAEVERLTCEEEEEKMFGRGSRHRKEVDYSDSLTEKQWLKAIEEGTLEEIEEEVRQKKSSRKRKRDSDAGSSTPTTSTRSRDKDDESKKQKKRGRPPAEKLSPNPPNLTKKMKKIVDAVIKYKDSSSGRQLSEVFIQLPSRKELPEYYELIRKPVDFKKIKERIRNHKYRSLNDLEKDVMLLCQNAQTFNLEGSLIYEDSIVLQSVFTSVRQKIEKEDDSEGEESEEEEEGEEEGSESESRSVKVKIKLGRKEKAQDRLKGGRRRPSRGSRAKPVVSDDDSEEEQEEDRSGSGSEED

Consider `Cn1c(=O)n(C2CCC(=O)NC2=O)c2ccc(CCCN3CCN(c4cnc(N5C6CCC5CN(c5cc(-c7ccccc7O)nnc5N)C6)nc4)CC3)cc21` (stereo not shown) [I-285], for which the Dmax in experiment [1], in experiment [2] and in experiment [3] was over 90% each time. Besides, the DC50 in experiment [1], in experiment [2] and in experiment [3] was under 100 nM throughout.

With `Cn1c(=O)n(C2CCC(=O)NC2=O)c2ccc(C3CCC(N4CCC(c5cnc(N6C7CCC6CN(c6cc(-c8ccccc8O)nnc6N)C7)nc5)CC4)CC3)cc21` (stereo not shown) [I-290], the Dmax in experiment [1], in experiment [2] and in experiment [3] was over 90% in each case. Besides, the DC50 in experiment [1], in experiment [2] and in experiment [3] was under 100 nM in each case.

Consider `Cc1ncsc1-c1ccc(CNC(=O)[C@@H]2C[C@@H](O)CN2C(=O)[C@@H](NC(=O)N2CCC(c3cnc(N4C5CCC4CN(c4cc(-c6ccccc6O)nnc4N)C5)nc3)CC2)C(C)(C)C)cc1` [I-448], for which the Dmax (as a rule, the largest share of the target that was removed) was over 90% in experiment [1], 70 to 90% in experiment [2] and over 90% in experiment [3]. Moreover, the DC50 (usually the concentration giving 50% degradation) was under 100 nM in experiment [1], 100 to 500 nM in experiment [2] and 100 to 500 nM in experiment [3].

On to `Cc1ncsc1-c1ccc(CNC(=O)[C@@H]2C[C@@H](O)CN2C(=O)[C@@H](NC(=O)CCN2CCC(c3cnc(N4C5CCC4CN(c4cc(-c6ccccc6O)nnc4N)C5)nc3)CC2)C(C)(C)C)cc1` [I-449], for which the Dmax in experiment [1], in experiment [2] and in experiment [3] was under 50% each time. In addition, the results for the DC50 in experiment [1], in experiment [2] and in experiment [3] were 100 to 500 nM, 100 to 500 nM and over 1000 nM, respectively.

As to `Cc1ncsc1-c1ccc(CNC(=O)[C@@H]2C[C@@H](O)CN2C(=O)[C@@H](NC(=O)CN(C)Cc2ccc(N3CCN(c4cc(-c5ccccc5O)nnc4N)CC3)cc2)C(C)(C)C)cc1` [I-462], the results for the Dmax in experiment [1], in experiment [2] and in experiment [3] were under 50%, 70 to 90% and 70 to 90%, respectively. Further, the DC50 in experiment [1] is over 1000 nM; in experiment [2], 501 to 1000 nM; in experiment [3] it was 501 to 1000 nM.

With `Cc1ncsc1-c1ccc(CNC(=O)[C@@H]2C[C@@H](O)CN2C(=O)[C@@H](NC(=O)CN(C)CC#Cc2cnc(N3C4CCC3CN(c3cc(-c5ccccc5O)nnc3N)C4)nc2)C(C)(C)C)cc1` [I-495], the Dmax in experiment [1] is over 90%; in experiment [2] it was 70 to 90%; in experiment [3] it was 70 to 90%. The values for the DC50 in experiment [1], in experiment [2] and in experiment [3] were under 100 nM, 100 to 500 nM and 100 to 500 nM, respectively.

On to `Cc1ncsc1-c1ccc(CNC(=O)[C@@H]2C[C@@H](O)CN2C(=O)[C@@H](NC(=O)Cc2ccc(N3CCC(c4cnc(N5C6CCC5CN(c5cc(-c7ccccc7O)nnc5N)C6)nc4)CC3)cc2)C(C)(C)C)cc1` [I-513], for which, in experiment [1], the Dmax is 70 to 90% and the DC50 lay in the range of 100 to 500 nM. For the same molecule, in experiment [3], the Dmax lay within 70 to 90% and the DC50 was 501 to 1000 nM.

`Cc1ncsc1-c1ccc(CNC(=O)[C@@H]2C[C@@H](O)CN2C(=O)[C@@H](NC(=O)c2ccc(N3CCC(n4cc(-c5cc(-c6ccccc6O)nnc5N)cn4)CC3)cc2)C(C)(C)C)cc1` [I-515]: in experiment [1], the Dmax is over 90% and the DC50 was under 100 nM. Besides, in experiment [3], the Dmax was under 50% and the DC50 is over 1000 nM.

On to `Cc1ncsc1-c1ccc(CNC(=O)[C@@H]2C[C@@H](O)CN2C(=O)[C@@H](NC(=O)Cc2ccc(N3CCC(n4cc(-c5cc(-c6ccccc6O)nnc5N)cn4)CC3)cc2)C(C)(C)C)cc1` [I-516], for which, in experiment [1], the Dmax is under 50% and the DC50 is over 1000 nM. In experiment [3], the maximal degradation (Dmax) was under 50% and the DC50 is over 1000 nM.

On to `Cc1ncsc1-c1ccc(CNC(=O)[C@@H]2C[C@@H](O)CN2C(=O)[C@@H](NC(=O)C2(F)CC2)C2CCC(N(C)CCCc3cnc(N4C5CCC4CN(c4cc(-c6ccccc6O)nnc4N)C5)nc3)CC2)cc1` (stereo partly shown) [I-518], for which, in experiment [1], the Dmax is 50 to 70% and the 50% degradation concentration (DC50) lay in the range of 100 to 500 nM. Further, in experiment [3], the Dmax is under 50% and the DC50 is over 1000 nM.

For `Cc1cc(-c2scnc2C)ccc1CNC(=O)[C@@H]1C[C@@H](O)CN1C(=O)[C@@H](NC(=O)CN1CCC(c2cnc(N3C4CCC3CN(c3cc(-c5ccccc5O)nnc3N)C4)nc2)CC1)C(C)(C)C` [I-521], in experiment [1], the Dmax is over 90% and the half-maximal degradation concentration (DC50) was in the range of 100 to 500 nM. Further, in experiment [3], the Dmax is over 90% and the DC50 lay in the range of 100 to 500 nM.

For `Nc1nnc(-c2ccccc2O)cc1N1CC2CCC(C1)N2c1ncc(C2CCN(CCCNC(=O)COc3ccc4c(c3)CCCN4C(=O)CCl)CC2)cn1` [I-523, N-[3-[4-[2-[3-[3-amino-6-(2-hydroxyphenyl)pyridazin-4-yl]-3,8-diazabicyclo[3.2.1]octan-8-yl]pyrimidin-5-yl]-1-piperidyl]propyl]-2-[[1-(2-chloroacetyl)-3,4-dihydro-2H-quinolin-6-yl]oxy]acetamide], the Dmax in experiment [1] is over 90%; in experiment [3], under 50%. For the same molecule, the DC50 in experiment [1] and in experiment [3] was over 1000 nM each time.

Turning to `Nc1nnc(-c2ccccc2O)cc1N1CC2CCC(C1)N2c1ncc(C2CCN(CCCCCNC(=O)COc3ccc4c(c3)CCCN4C(=O)CCl)CC2)cn1` [I-524], the figures for the maximal degradation (Dmax) in experiment [1] and in experiment [3] were 70 to 90% and under 50%, respectively. Also, the DC50 in experiment [1] and in experiment [3] was over 1000 nM throughout.

Turning to `Nc1nnc(-c2ccccc2O)cc1N1CC2CCC(C1)N2c1ncc(C2CCN(CCCCCCCCCNC(=O)COc3ccc4c(c3)CCCN4C(=O)CCl)CC2)cn1` [I-525], the Dmax was 50 to 70% in experiment [1] and under 50% in experiment [3]. The DC50 in experiment [1] and in experiment [3] was over 1000 nM each time.

Take `NCC#Cc1nccc(N2C3CCC2CN(c2cc(-c4ccccc4O)nnc2N)C3)n1` [I-534, 2-[6-amino-5-[8-[2-(3-aminoprop-1-ynyl)pyrimidin-4-yl]-3,8-diazabicyclo[3.2.1]octan-3-yl]pyridazin-3-yl]phenol]: the Dmax in experiment [1] was 70 to 90%; in experiment [2], over 90%; in experiment [3], under 50%. In addition, the DC50 in experiment [1] was over 1000 nM; in experiment [2], 100 to 500 nM; in experiment [3], over 1000 nM.

Consider `CC(C)(C)[C@H](NC(=O)[C@H]1CC2(C1)C[C@H](N1CCC(c3cnc(N4C5CCC4CN(c4cc(-c6ccccc6O)nnc4N)C5)nc3)CC1)C2)C(=O)N1C[C@H](O)C[C@H]1C(=O)NOc1ccc(-c2ccccc2F)cc1` (stereo partly drawn) [I-537, (2S,4R)-1-[(2S)-2-[[2-[4-[2-[3-[3-amino-6-(2-hydroxyphenyl)pyridazin-4-yl]-3,8-diazabicyclo[3.2.1]octan-8-yl]pyrimidin-5-yl]-1-piperidyl]spiro[3.3]heptane-6-carbonyl]amino]-3,3-dimethyl-butanoyl]-N-[4-(2-fluorophenyl)phenoxy]-4-hydroxy-pyrrolidine-2-carboxamide], for which the 50% degradation concentration (DC50) in experiment [4] and in experiment [3] was over 1000 nM each time.
